Reference: patent publication US11382956B2, “Amylin analogues” (Zealand Pharma A/S, priority 2016, dated 2022)
Numbered stars: 1 amine (or outer) side, 2 acyl side, 3 side chain; on linkers, the order of the positions; unused ones are H or OH. Bridge positions count the residues as written; N and C are the ends. Square brackets hold non-standard residues; d marks the D form. Peptide text beside a SMILES is read from it. * marks the point of attachment. C20 diacid = O=C(O)CCCCCCCCCCCCCCCCCCC(=O)*; γGlu = O=C(O)[C@H](CCC(=O)[*:2])N[*:1]; Hyp = O=C(O)[C@@H]1C[C@@H](O)CN1; NMeI = CC[C@H](C)[C@H](NC)C(=O)O; Aad = N[C@@H](CCCC(=O)O)C(=O)O; Sar = CNCC(=O)O

Assays:
[1] = Pharmacokinetic (PK) profiling in rats; settings: male, Sprague Dawley, plasma; rat, single sc bolus 30 nmol/kg; read-out: in vivo half life t1/2 (plasma terminal elimination half-life) (converted)
Protocol: Sprague Dawley male rats were given a single subcutaneous (sc) bolus of each peptide to be tested, as specified below.
30 nmol/kg doses of compound were administered. Blood samples were drawn from the tail vein prior to dosing and at 24 and 96 hours after dosing. The rats were euthanized immediately after the last blood sampling by concussion and cervical dislocation.
The dosing vehicle used for each test peptide was a mannitol-containing histidine buffer (pH 7.0). Plasma samples were analyzed after precipitation with ethanol by liquid chromatography mass spectrometry (LC-MS/MS). Mean plasma concentrations were used for calculation of the pharmacokinetic parameters.
Plasma terminal elimination half-life (t1/2) was determined as In(2)/λz, where λz is the magnitude of the slope of the log linear regression of the log concentration versus time profile during the terminal phase.

[2] = Assessment of physical stability: fibril formation by Thioflavin T fluorescence; format: physicochemical; set-up: key: FND = fibrillation not detected; FD = fibrillation detected; settings: 1 mg/mL peptide
Procedure, shortened: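 Fibrillation detected (FD) means a significant rise in ThT fluorescence over 96 hours at 40° C, read at 10 min intervals each preceded by 300 s automixing. Samples: 1 mg/mL peptide, 40 μM ThT, in 50 mM phosphate or histidine (pH 7.0) or acetate (pH 4.0), triplicate.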

[3] = target: T1, recombinant human calcitonin receptor (hCT-R) (Homo sapiens, UniProt P30988); assay: hCT-R cAMP assay (AlphaScreen) in 1321N1 cells; format: cell-based; settings: cAMP formation, 45 min stimulation
T1 construct: host or cells: human astrocytoma cell line 1321N1
T1 sequence (P30988 25-474): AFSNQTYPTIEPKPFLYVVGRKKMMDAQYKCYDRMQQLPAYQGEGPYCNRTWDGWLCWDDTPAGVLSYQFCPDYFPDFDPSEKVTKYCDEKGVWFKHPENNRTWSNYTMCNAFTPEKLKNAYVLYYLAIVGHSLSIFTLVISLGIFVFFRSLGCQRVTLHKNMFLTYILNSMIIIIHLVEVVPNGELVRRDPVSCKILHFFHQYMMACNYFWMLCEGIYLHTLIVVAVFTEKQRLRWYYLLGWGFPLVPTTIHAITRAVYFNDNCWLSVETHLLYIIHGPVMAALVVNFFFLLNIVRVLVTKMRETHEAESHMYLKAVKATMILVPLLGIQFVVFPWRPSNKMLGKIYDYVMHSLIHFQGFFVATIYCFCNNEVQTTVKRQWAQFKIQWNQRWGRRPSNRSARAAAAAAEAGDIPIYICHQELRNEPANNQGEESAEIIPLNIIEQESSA
Procedure, shortened: (§1)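 EC50 values come from curve fits over at least 7 peptide concentrations, with cAMP read by AlphaScreen competition after 1 h in the dark. Cells were 1321N1 lines carrying human calcitonin receptor, with RAMP3 co-expressed for AMY3, treated 45 min at room temperature in the presence of IBMX.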

[4] = target: T2, recombinant human amylin 3 receptor (hAMYR3) (Homo sapiens, UniProt O60896+P30988); assay: hAMYR3 cAMP assay (AlphaScreen) in 1321N1 cells; format: cell-based; settings: cAMP formation, 45 min stimulation
T2 construct: host or cells: human astrocytoma cell line 1321N1
T2 sequence (P30988 25-474): T1 sequence (P30988 25-474)
T2 sequence (O60896 24-148 partner): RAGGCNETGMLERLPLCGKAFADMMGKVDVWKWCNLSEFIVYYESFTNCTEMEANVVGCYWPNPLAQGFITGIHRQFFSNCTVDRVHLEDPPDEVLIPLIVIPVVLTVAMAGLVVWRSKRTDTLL
Procedure, shortened: as §1

[5] = Assessment of chemical stability in 40 mM buffers at 40° C. (RP-HPLC); format: physicochemical; settings: 1 mg/mL
Procedure, shortened: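 Degradation is the main-peak area-% at each time point minus that at t=0, measured by C8 reversed-phase HPLC (TFA/acetonitrile/water gradient, 220 nm). Incubation at 40° C for 3 or 14 days, 1 mg/mL peptide in 40 mM buffer at pH 4, 6 or 7.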

[6] = Effect on acute food intake and body weight in normal Sprague Dawley rats; format: in vivo, Sprague Dawley (SD) rats; settings: Dose: 30 nmol/kg sc, vehicle-corrected
[7] = cited from earlier work
[8] = WO99/34764; cited from earlier work

CC[C@H](C)[C@@H](C(=O)N[C@@H](CC(C)C)C(=O)N[C@@H](CO)C(=O)N[C@@H](CO)C(=O)N[C@H](C(=O)N[C@@H](CCC(=O)O)C(=O)N[C@H](C(=O)NCC(=O)N[C@@H](CO)C(=O)N[C@@H](CC(N)=O)C(=O)N[C@H](C(=O)N1C[C@H](O)C[C@H]1C(N)=O)[C@@H](C)O)C(C)C)[C@@H](C)O)N(C)C(=O)[C@H](C)NC(=O)CN(C)C(=O)[C@H](Cc1ccccc1)NC(=O)[C@@H](NC(=O)[C@@H](NC(=O)[C@H](CCCNC(=N)N)NC(=O)[C@H](CCC(N)=O)NC(=O)[C@H](CC(C)C)NC(=O)[C@H](Cc1ccccc1)NC(=O)[C@H](CCCC(=O)O)NC(=O)[C@H](C)NC(=O)[C@H](CC(C)C)NC(=O)[C@H](CCCNC(=N)N)NC(=O)[C@H](CCC(=O)O)NC(=O)[C@@H](NC(=O)[C@H](C)NC(=O)[C@@H]1CCCCNC(=O)C[C@H](NC(=O)[C@H](CCCNC(=N)N)NC(=O)CC[C@H](NC(=O)CCCCCCCCCCCCCCCCCCC(=O)O)C(=O)O)C(=O)NCC(=O)N[C@@H]([C@@H](C)O)C(=O)N[C@@H](C)C(=O)N[C@@H]([C@@H](C)O)C(=O)N1)[C@@H](C)O)[C@@H](C)O)[C@@H](C)O [Compound 38, [19CD]-isoGlu-RD()GTATK()ATERLA-Aad-FLQRTTF-Gly(Me)-A-Ile(Me)-LSSTEVGSNT-Hyp-NH2] ({C20 diacid-γGlu}-RDGTATKATERLA[Aad]FLQRTTF[Sar]A[NMeI]LSSTEVGSNT[Hyp]-NH2; lactam 2-7)
half-life [1]: 31.8 h
Fibrillation (in buffer) pH4 acetate ([2]; 50 mM acetate buffer pH 4.0, 96 hours at 40° C.): FD
Fibrillation (in buffer) pH7 histidine ([2]; 50 mM histidine buffer pH 7.0, 96 hours at 40° C.): FND
Fibrillation (in buffer) pH7 phosphate ([2]; 50 mM phosphate buffer pH 7.0, 96 hours at 40° C.): FND
EC50 [3]: 0.114 nM
EC50 [4]: 0.06 nM
% degradation after 72 h at 40° C. pH4 acetate ([5]; acetate buffer pH 4, 72 h): <1%
% degradation after 72 h at 40° C. pH6 phosphate ([5]; phosphate buffer pH 6, 72 h): <1%
% degradation after 72 h at 40° C. pH7 phosphate ([5]; phosphate buffer pH 7, 72 h): <1%
% degradation after 14 days at 40° C. pH7 phosphate ([5]; phosphate buffer pH 7, 14 days): <1%
Body weight reduction in % at 48 h [6]: 8.2%
Food intake reduction in % at 48 h [6]: 43%

CC[C@H](C)[C@H](NC(=O)[C@@H]1CCCN1C(=O)CNC(=O)[C@H](Cc1ccccc1)NC(=O)[C@H](CC(N)=O)NC(=O)[C@H](CC(N)=O)NC(=O)[C@H](CO)NC(=O)[C@H](CO)NC(=O)[C@H](Cc1c[nH]cn1)NC(=O)[C@@H](NC(=O)[C@H](CC(C)C)NC(=O)[C@H](Cc1ccccc1)NC(=O)[C@H](CC(N)=O)NC(=O)[C@H](C)NC(=O)[C@H](CC(C)C)NC(=O)[C@H](CCCNC(=N)N)NC(=O)[C@H](CCC(N)=O)NC(=O)[C@@H](NC(=O)[C@H](C)NC(=O)[C@@H]1CSSC[C@H](NC(=O)[C@@H](N)CCCCN)C(=O)N[C@@H](CC(N)=O)C(=O)N[C@@H]([C@@H](C)O)C(=O)N[C@@H](C)C(=O)N[C@@H]([C@@H](C)O)C(=O)N1)[C@@H](C)O)C(C)C)C(=O)N[C@@H](CC(C)C)C(=O)N1CCC[C@H]1C(=O)N1CCC[C@H]1C(=O)N[C@H](C(=O)N[C@@H](CC(N)=O)C(=O)N[C@H](C(=O)NCC(=O)N[C@@H](CO)C(=O)N[C@@H](CC(N)=O)C(=O)N[C@H](C(=O)N[C@@H](Cc1ccc(O)cc1)C(N)=O)[C@@H](C)O)C(C)C)[C@@H](C)O [pramlintide]
effect on body weight in human trials [7]: reduce body weight or reduce weight gain

^2,7cyclo-[2Asp,7Lys]-h-amylin
potency compared with other amylin analogues and human amylin [8]: considerably lower potency
